Assay results from US20180153995A1, “USE OF ANTIMICROBIAL POLYMERS FOR RE-SENSITIZATION OF MICROORGANISMS UPON EMERGENCE OF RESISTANCE TO ANTI-MICROBIAL AGENTS” (Technion Research & Development Foundation Limited, priority 2008, published 2018).
Converted amounts (≈) assume the structure as drawn. “And” between values parts separate entries of the source, which are not always exact repeats. Equal entries are not always repeated. Where two headings read alike, the source gives them in different places.

Assays:
MRSA 15903 = experiment: microbe, parasite or virus in culture; type: cell-based, Staphylococcus aureus
Procedure, shortened: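 Two-agent combinations tested against MRSA 15903; FIC index = A/MICA + B/MICB, using MICs in combination versus alone. Below 0.5 read as clear re-sensitizing, 0.5–4 marginal or null, above 4 antagonism.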

S. aureus 15819 = experiment: Antibiotic MIC by microdilution with or without sub-MIC polymer; type: cell-based, Staphylococcus aureus
Protocol: MICs were determined by microdilution susceptibility testing in 96-well plates (Nunc) using inocula of 10^5 bacteria per ml. One hundred (100) μl of a bacterial suspension were added to 100 μl of culture medium (control) or to 100 μl of culture medium containing various antibiotic and C12(5-ene)KKNC12KNH2 (SEQ ID NO: 2) concentrations in 2-fold serial dilutions. Inhibition of proliferation was determined by optical density measurements at 620 nm after an incubation period of 24 hours at 37° C.

S. aureus 15877 = experiment: as above; type: cell-based, Staphylococcus aureus
S. aureus 17314 = experiment: as above; type: cell-based, Staphylococcus aureus
E. coli 14384 = experiment: as above; type: cell-based, Escherichia coli; conditions: E. coli 14384; for Antibiotic MIC: no polymer (None)
Protocol: (§1) MICs were determined by microdilution susceptibility testing in 96-well plates (by Nunc) using inocula of 10^5 bacteria per ml. Cell populations were evaluated by optical density measurements at 620 nm and were calibrated against a set of standards. Hundred (100) μl of a bacterial suspension were added to 100 μl of culture medium (control) or to 100 μl of culture medium containing various polymer concentrations in 2-fold serial dilutions. Inhibition of proliferation was determined by optical density measurements at 620 nm after an incubation period of 24 hours at 37° C.
(§2) 100 μl of a bacterial suspension were added to 100 μl of culture medium (control) or to 100 μl of culture medium containing various antibiotic and C14(9-ene)KKNC12KNH2 (SEQ ID NO: 5) concentrations in 2-fold serial dilutions. Inhibition of proliferation was determined by optical density measurements at 620 nm after an incubation period of 24 hours at 37° C.

E. coli 16327 = experiment: microbe, parasite or virus in culture; conditions: for Antibiotic MIC: E. coli 16327
Protocol: as §1, §2

E. coli 16329 = type: cell-based, Escherichia coli
Protocol: as §1, §2

E. coli 14182 = experiment: Antibiotic MIC by microdilution with or without sub-MIC polymer; type: cell-based, Escherichia coli
S. maltophila 748 = experiment: as above; type: cell-based, Stenotrophomonas maltophila
S. aureus 43300 = experiment: as above; type: cell-based, Staphylococcus aureus
[1] = +¼ MIC (1.6 μM) C12(5-ene)KKNC12KNH2
[2] = +⅓ MIC (2.1 μM) C12(5-ene)KKNC12KNH2
[3] = +½ MIC (3.12 μM) C12K(KNC12K)2NH2

## O=C(O)c1cn(C2CC2)c2cc(N3CCNCC3)c(F)cc2c1=O [Ciprofloxacin, ciprofloxacin]
MRSA 15903; MRSA 15903, +¼ polymer MIC (1.6 μM) NC12(KNC12K)2NH2
  MIC: 32 µg/mL
MRSA 15903; MRSA 15903, +½ polymer MIC (3.1 μM) NC12(KNC12K)2NH2
  MIC: 1 µg/mL
MRSA 15903; MRSA 15903, +⅓ polymer MIC (2.1 μM) NC12(KNC12K)2NH2
  MIC: 16 µg/mL
MRSA 15903; MRSA 15903, with C12K(KNC10K)3NH2 (SEQ ID NO: 10) at ¼ of its MIC
  MIC, ¼ + MIC OAK: 128 µg/mL
MRSA 15903; MRSA 15903, with C12K(KNC10K)3NH2 (SEQ ID NO: 10) at ½ of its MIC
  MIC, ½ + MIC OAK: 64 µg/mL
MRSA 15903; MRSA 15903, with C12K(KNC10K)3NH2 (SEQ ID NO: 10) at ⅓ of its MIC
  MIC, ⅓ + MIC OAK: 128 µg/mL
MRSA 15903; S. aureus CI-15903, +polymer (¼ MIC) C12(5-ene)KKNC12KNH2
  MIC: 32 µg/mL
MRSA 15903; S. aureus CI-15903, +polymer (½ MIC) C12(5-ene)KKNC12KNH2
  MIC: 0.25 µg/mL
MRSA 15903; S. aureus CI-15903, +polymer (⅓ MIC) C12(5-ene)KKNC12KNH2
  MIC: 4 µg/mL
MRSA 15903; Staphylococcus aureus, MRSA, 24 h, MRSA 15903, antibiotic alone (Table 22), read-out: MIC, Alone
  MIC: 256 µg/mL
MRSA 15903; Staphylococcus aureus, MRSA, 24 h, MRSA 15903, antibiotic alone, read-out: MIC
  MIC: 64 µg/mL
MRSA 15903; Staphylococcus aureus, MRSA, 24 h, S. aureus CI-15903, alone, read-out: MIC
  MIC: 64 µg/mL
S. aureus 15819
  Antibiotic MIC: 0.125 µg/mL and 0.125 to 0.25 µg/mL
S. aureus 15819; S. aureus 15819, +¼ MIC (1.6 μM) C12K(KNC12K)3NH2
  Antibiotic MIC: 0.125 µg/mL
S. aureus 15819; S. aureus 15819, +½ MIC (3.12 μM) C12K(KNC12K)3NH2
  Antibiotic MIC: 0.06 µg/mL
S. aureus 15819; S. aureus 15819, +⅓ MIC (2.1 μM) C12K(KNC12K)3NH2
  Antibiotic MIC: 0.125 µg/mL
S. aureus 15819; S. aureus 15819, no polymer (None), Table 8
  Antibiotic MIC: 0.125 to 0.25 µg/mL
S. aureus 15819; S. aureus 15819, no polymer (None), Table 11
  Antibiotic MIC: 0.125 to 0.25 µg/mL
S. aureus 15819; S. aureus 15819, no polymer (None), Table 13
  Antibiotic MIC: 0.25 µg/mL
S. aureus 15877; [1]
  Antibiotic MIC: 4 µg/mL
S. aureus 15877; +½ MIC (3.12 μM) C12(5-ene)KKNC12KNH2
  Antibiotic MIC: 4 µg/mL
S. aureus 15877; [2]
  Antibiotic MIC: 4 µg/mL
S. aureus 15877; no polymer (None), Table 8
  Antibiotic MIC: 4 µg/mL
S. aureus 17314
  Antibiotic MIC: 128 µg/mL
S. aureus 17314; S. aureus 17314, +¼ MIC (1.6 μM) C12K(KNC12K)2NH2
  Antibiotic MIC: 128 µg/mL
S. aureus 17314; S. aureus 17314, +¼ MIC (1.6 μM) C14(9-ene)KKNC12KNH2
  Antibiotic MIC: 64 µg/mL
S. aureus 17314; S. aureus 17314, +¼ MIC (1.6 μM) C16(9-ene)KKNC12KNH2
  Antibiotic MIC: 32 µg/mL
S. aureus 17314; S. aureus 17314, +½ MIC (3.12 μM) C12K(KNC12K)2NH2
  Antibiotic MIC: 64 µg/mL
S. aureus 17314; S. aureus 17314, +½ MIC (3.12 μM) C12KKNC12KNH2
  Antibiotic MIC: 64 µg/mL
S. aureus 17314; S. aureus 17314, +½ MIC (3.12 μM) C14(9-ene)KKNC12KNH2
  Antibiotic MIC: 64 µg/mL
S. aureus 17314; S. aureus 17314, +½ MIC (3.12 μM) C16(9-ene)KKNC12KNH2
  Antibiotic MIC: 16 µg/mL
S. aureus 17314; S. aureus 17314, +⅓ MIC (2.1 μM) C12K(KNC12K)2NH2
  Antibiotic MIC: 64 µg/mL
S. aureus 17314; S. aureus 17314, +⅓ MIC (2.1 μM) C12KKNC12KNH2
  Antibiotic MIC: 64 µg/mL
S. aureus 17314; S. aureus 17314, +⅓ MIC (2.1 μM) C14(9-ene)KKNC12KNH2
  Antibiotic MIC: 64 µg/mL
S. aureus 17314; S. aureus 17314, +⅓ MIC (2.1 μM) C16(9-ene)KKNC12KNH2
  Antibiotic MIC: 32 µg/mL
S. aureus 17314; S. aureus 17314, no polymer (None), Table 9
  Antibiotic MIC: 64 µg/mL
S. aureus 17314; S. aureus 17314, no polymer (None), Table 10
  Antibiotic MIC: 64 µg/mL
S. aureus 17314; S. aureus 17314, no polymer (None), Table 11
  Antibiotic MIC: 128 µg/mL
S. aureus 17314; S. aureus 17314, no polymer (None), Table 12
  Antibiotic MIC: 128 µg/mL
E. coli 14384; antibiotic alone (Table 15)
  Antibiotic MIC, None: <0.03 µg/mL
E. coli 14384; Table 9
  Antibiotic MIC: <0.03 µg/mL
E. coli 14384; Table 14
  Antibiotic MIC: <0.03 µg/mL
E. coli 16327; +¼ MIC (1.6 μM) C12K(KNC12K)2NH2
  Antibiotic MIC: >512 µg/mL
E. coli 16327; [3]
  Antibiotic MIC: 128 µg/mL
E. coli 16327; +½ MIC (3.12 μM) C14(9-ene)KKNC12KNH2
  Antibiotic MIC: 32 to 64 µg/mL
E. coli 16327; +⅓ MIC (2.1 μM) C12K(KNC12K)2NH2
  Antibiotic MIC: >512 µg/mL
E. coli 16327; no polymer (None), Table 9
  Antibiotic MIC: >512 µg/mL
E. coli 16327; no polymer (None), Table 10
  Antibiotic MIC: >512 µg/mL
E. coli 16327; no polymer (None), Table 12
  Antibiotic MIC: >512 µg/mL
E. coli 16327; E. coli U16327, with C12K(KNC10K)3NH2 (SEQ ID NO: 10) at ¼ of its MIC
  MIC, ¼ + MIC OAK: 128 to 256 µg/mL
E. coli 16327; E. coli U16327, with C12K(KNC10K)3NH2 (SEQ ID NO: 10) at ½ of its MIC
  MIC, ½ + MIC OAK: 128 µg/mL
E. coli 16327; E. coli U16327, with C12K(KNC10K)3NH2 (SEQ ID NO: 10) at ⅓ of its MIC
  MIC, ⅓ + MIC OAK: 128 µg/mL
E. coli 16327; E. coli U-16327, antibiotic alone (Table 15)
  Antibiotic MIC, None: 128 to 256 µg/mL
E. coli 16327; E. coli U-16327, polymer at ¼ of its MIC
  Antibiotic MIC in presence of C12K(NC8K)7NH2 (SEQ ID NO: 4), +¼ MIC: 64 to 128 µg/mL
E. coli 16327; E. coli U-16327, polymer at ½ of its MIC
  Antibiotic MIC in presence of C12K(NC8K)7NH2 (SEQ ID NO: 4), +½ MIC: 16 µg/mL
E. coli 16327; E. coli U-16327, polymer at ⅓ of its MIC
  Antibiotic MIC in presence of C12K(NC8K)7NH2 (SEQ ID NO: 4), +⅓ MIC: 32 to 64 µg/mL
E. coli 16327; Escherichia coli, 16327, read-out: MIC, Alone
  MIC: 256 µg/mL (≈ 773 µM)
E. coli 16329; E. coli 16329, +¼ MIC (1.6 μM) C16(9-ene)KKNC12KNH2
  Antibiotic MIC: 64 µg/mL
E. coli 16329; E. coli 16329, +½ MIC (3.12 μM) C16(9-ene)KKNC12KNH2
  Antibiotic MIC: 64 µg/mL
E. coli 16329; E. coli 16329, +⅓ MIC (2.1 μM) C16(9-ene)KKNC12KNH2
  Antibiotic MIC: 64 µg/mL
E. coli 16329; E. coli 16329, no polymer (None), Table 10
  Antibiotic MIC: 64 µg/mL
E. coli 16329; E. coli U-16329, +¼ MIC C12K(NC8K)5NH2
  Antibiotic MIC: 64 µg/mL
E. coli 16329; E. coli U-16329, +½ MIC C12K(NC8K)5NH2
  Antibiotic MIC: 32 µg/mL
E. coli 16329; E. coli U-16329, +⅓ MIC C12K(NC8K)5NH2
  Antibiotic MIC: 64 µg/mL
E. coli 16329; E. coli U-16329, antibiotic alone (Table 15)
  Antibiotic MIC, None: 64 µg/mL
E. coli 16329; E. coli U-16329, no polymer (None), Table 14
  Antibiotic MIC: 64 µg/mL
E. coli 16329; E. coli U-16329, polymer at ¼ of its MIC
  Antibiotic MIC in presence of C12K(NC8K)7NH2 (SEQ ID NO: 4), +¼ MIC: 64 to 128 µg/mL
E. coli 16329; E. coli U-16329, polymer at ½ of its MIC
  Antibiotic MIC in presence of C12K(NC8K)7NH2 (SEQ ID NO: 4), +½ MIC: 64 µg/mL
E. coli 16329; E. coli U-16329, polymer at ⅓ of its MIC
  Antibiotic MIC in presence of C12K(NC8K)7NH2 (SEQ ID NO: 4), +⅓ MIC: 64 µg/mL
E. coli 14182; antibiotic alone (Table 15)
  Antibiotic MIC, None: <0.03 µg/mL
E. coli 14182; no polymer (None), Table 14
  Antibiotic MIC: <0.03 µg/mL
S. maltophila 748; +¼ MIC (1.6 μM) C12K(KNC12K)3NH2
  Antibiotic MIC: 8 µg/mL
S. maltophila 748; +½ MIC (3.12 μM) C12K(KNC12K)3NH2
  Antibiotic MIC: 2 µg/mL
S. maltophila 748; +⅓ MIC (2.1 μM) C12K(KNC12K)3NH2
  Antibiotic MIC: 4 to 8 µg/mL
S. maltophila 748; no polymer (None), Table 13
  Antibiotic MIC: 8 µg/mL
S. aureus 43300; [1]
  Antibiotic MIC: 0.25 µg/mL
S. aureus 43300; +¼ MIC (1.6 μM) C12KKNC12KNH2
  Antibiotic MIC: 0.5 µg/mL
S. aureus 43300; +¼ MIC (1.6 μM) C16(9-ene)KKNC12KNH2
  Antibiotic MIC: 0.25 µg/mL
S. aureus 43300; [3]
  Antibiotic MIC: 0.13 to 0.25 µg/mL
S. aureus 43300; +½ MIC (3.12 μM) C12KKNC12KNH2
  Antibiotic MIC: 0.25 µg/mL
S. aureus 43300; +½ MIC (3.12 μM) C16(9-ene)KKNC12KNH2
  Antibiotic MIC: 0.125 µg/mL
S. aureus 43300; [2]
  Antibiotic MIC: 0.125 µg/mL
S. aureus 43300; +⅓ MIC (2.1 μM) C12KKNC12KNH2
  Antibiotic MIC: 0.5 µg/mL
S. aureus 43300; +⅓ MIC (2.1 μM) C16(9-ene)KKNC12KNH2
  Antibiotic MIC: 0.25 µg/mL
